# Results taken from patent US3968207A, “Method of controlling fleas and ticks on cats and dogs” (priority 1975, dated 1976).
# Tests used:
# Format in all cases: in vivo
# [1] = tested on: Boophilus microplus larvae; experiment: Control of acarina larvae in pipettes (simulated spray); details: Rhipicephalus microplus, 48 hours, read-out: Activity (larval mortality)
# Method: Boophilus is a one-host tick which uses only one host animal during its three parasitic life stages (larvae, nymph, adult). […] Twenty larvae are enclosed in a pipette sealed at one end with a gauze material, and the "solution" containing the test compound is then drawn through the pipette with a vacuum hose, simulating a spray system. The open end of the pipette is sealed with plastiline and the ticks held for 48 hours at room temperature and 80+% humidity. Activity is based on mortality. The test compound was 100%, 100% and 0% active at 0.01%, 0.001% and 0.0001% (w/w), respectively.
# Ctenocephalides felis [2] = experiment: Topical (spray or 2% dust) flea control on dogs, Table I
# Method: Dogs used in testing were placed in raised cages with steel grate floors. Three days prior to treatment, 100 fleas were placed on each dog. On the day of treatment each cage was lined with absorbent brown paper. Dogs were treated at various dose levels (1-60 mg./kg.) applied topically using a 2% active ingredient dust formulation, or a dilute aqueous dispersion applied as a spray. Activity was determined by the number of dead fleas recovered from the brown paper, and a systematic examination of the test animal in relation to infested, untreated control dogs.
# Residual activity of the initial application of the test compound was done by experimentally reinfesting each dog at 7-day intervals with an additional 100 adult C. felis. Activity was determined as described above.
# Ctenocephalides felis [3] = experiment: 2% powder against experimental flea infestations on cats; details: 60 mg/kg as 2% powder
# Method: An experiment was conducted using O,O,O',O'-tetramethyl O,O'-thiodi-p-phenylene phosphorothioate which was prepared from a 25% concentrate diluted with talc so the final powder was 2% drug. Prior to the start of the test 23 cats were classified according to sex, age, hair length and color and divided into five groups. One of these groups was then randomly selected to be the controls and the other groups were assigned for treatment in a random order. The amount of 2% drug dust applied to each cat was calculated prior to treatment to give a dose rate of 60 mg. drug/kg. The duster was weighed before treating each cat and at intervals during dusting to get as near the desired dose as possible. […] Table VII summarizes the results obtained up to 48 days after treatment.
# Ctenocephalides felis [4] = experiment: Flea control on dogs fed medicated diet, Table IV; design: key: 100% Control; PC: Partial Control; NC: No Control
# Method: Five groups of two mongrel dogs each were fed a daily dose of 0, 6.25, 25, 100 or 400 mg. O,O,O',O'-tetramethyl O,O'-thiodi-p-phenylene phosphorothioate/kg. body weight in Agway Big Red Dog Meal. Dogs eating less than 75% of the food were given a corrected dose by gelatin capsule to equal 100%. Medication began 1 day after infesting each dog with 100 adult Ctenocephalides felis and 2 days before infesting each dog with 10 Dermacentor variabiles and 10 Rhipicephalus sanguineus adults.
# fleas and ticks = experiment: Control of fleas and ticks (general statement); details: topically and systemically
structure (smiles),measurement,setting,value
"COP(=S)(OC)Oc1ccc(Sc2ccc(OP(=S)(OC)OC)cc2)cc1 [O,O,O',O'-tetramethyl O,O'-thiodi-p-phenylene phosphorothioate]",mortality at 0.0001 %,[1]; 0.0001% (w/w),0%
same,mortality at 0.001 %,[1]; 0.001% (w/w),100%
same,mortality at 0.01 %,[1]; 0.01% (w/w),100%
same,Percent Activity,"Ctenocephalides felis [2]; 2% dust 10.0 mg/kg, day 0",100%
same,Percent Activity,"Ctenocephalides felis [2]; 2% dust 10.0 mg/kg, day 7",100%
same,Percent Activity,"Ctenocephalides felis [2]; 2% dust 10.0 mg/kg, day 14",100%
same,Percent Activity,"Ctenocephalides felis [2]; 2% dust 10.0 mg/kg, day 21",100%
same,Percent Activity,"Ctenocephalides felis [2]; 2% dust 10.0 mg/kg, day 28",80%
same,Percent Activity,"Ctenocephalides felis [2]; 2% dust 10.0 mg/kg, day 42",0%
same,Percent Activity,"Ctenocephalides felis [2]; 2% dust 20.0 mg/kg, day 0",100%
same,Percent Activity,"Ctenocephalides felis [2]; 2% dust 20.0 mg/kg, day 7",100%
same,Percent Activity,"Ctenocephalides felis [2]; 2% dust 20.0 mg/kg, day 14",100%
same,Percent Activity,"Ctenocephalides felis [2]; 2% dust 20.0 mg/kg, day 21",100%
same,Percent Activity,"Ctenocephalides felis [2]; 2% dust 20.0 mg/kg, day 28",100%
same,Percent Activity,"Ctenocephalides felis [2]; 2% dust 20.0 mg/kg, day 42",0%
same,Percent Activity,"Ctenocephalides felis [2]; 2% dust 40.0 mg/kg, day 0",100%
same,Percent Activity,"Ctenocephalides felis [2]; 2% dust 40.0 mg/kg, day 7",100%
same,Percent Activity,"Ctenocephalides felis [2]; 2% dust 40.0 mg/kg, day 14",100%
same,Percent Activity,"Ctenocephalides felis [2]; 2% dust 40.0 mg/kg, day 21",100%
same,Percent Activity,"Ctenocephalides felis [2]; 2% dust 40.0 mg/kg, day 28",100%
same,Percent Activity,"Ctenocephalides felis [2]; 2% dust 40.0 mg/kg, day 42",0%
same,Percent Activity,"Ctenocephalides felis [2]; spray 1.25 mg/kg, day 0",100%
same,Percent Activity,"Ctenocephalides felis [2]; spray 1.25 mg/kg, day 7",100%
same,Percent Activity,"Ctenocephalides felis [2]; spray 1.25 mg/kg, day 14",100%
same,Percent Activity,"Ctenocephalides felis [2]; spray 1.25 mg/kg, day 21",100%
same,Percent Activity,"Ctenocephalides felis [2]; spray 1.25 mg/kg, day 25",0%
same,Percent Activity,"Ctenocephalides felis [2]; spray 2.5 mg/kg, day 0",100%
same,Percent Activity,"Ctenocephalides felis [2]; spray 2.5 mg/kg, day 7",100%
same,Percent Activity,"Ctenocephalides felis [2]; spray 2.5 mg/kg, day 14",100%
same,Percent Activity,"Ctenocephalides felis [2]; spray 2.5 mg/kg, day 21",0%
same,Percent Activity,"Ctenocephalides felis [2]; spray 10.0 mg/kg, day 0",100%
same,Percent Activity,"Ctenocephalides felis [2]; spray 10.0 mg/kg, day 7",100%
same,Percent Activity,"Ctenocephalides felis [2]; spray 10.0 mg/kg, day 14",100%
same,Percent Activity,"Ctenocephalides felis [2]; spray 10.0 mg/kg, day 21",100%
same,Percent Activity,"Ctenocephalides felis [2]; spray 10.0 mg/kg, day 28",10%
same,control,Ctenocephalides felis [3]; fifth week,64%
same,residual control against C. felis on cats,Ctenocephalides felis [3]; for four weeks,excellent residual control
same,control,Ctenocephalides felis [3]; for three weeks,100%
same,control,Ctenocephalides felis [3]; fourth week,90%
same,control,Ctenocephalides felis [3]; sixth week,40%
same,Flea Control,"Ctenocephalides felis [4]; 6.25 mg/kg in feed, 1 dog, after 3 days",complete flea control
same,Flea Control,"Ctenocephalides felis [4]; 6.25 mg/kg in feed, other dog, after 4 days",complete flea control
same,Flea Control,"Ctenocephalides felis [4]; 400, 100 or 25 mg/kg in feed, all dogs, after 48 hours",Complete flea control
same,Flea Control,"Ctenocephalides felis [4]; in feed 6.25 mg/kg daily, day 2",NC and PC
same,Flea Control,"Ctenocephalides felis [4]; in feed 6.25 mg/kg daily, day 4",100 (100% Control)
same,Flea Control,"Ctenocephalides felis [4]; in feed 25 mg/kg daily, day 2",100 (100% Control)
same,Flea Control,"Ctenocephalides felis [4]; in feed 100 mg/kg daily, day 2",100 (100% Control)
same,Flea Control,"Ctenocephalides felis [4]; in feed 400 mg/kg daily, day 2",100 (100% Control)
same,controlling fleas and ticks,fleas and ticks,highly effective
